The target in one assay is cathepsin L (Rattus norvegicus, UniProt P07154). The assay can be described thus: In vitro assay for cathepsin L inhibition. It is filed as biochemical. The settings on record: r rat cathepsin L; pH 5.0; 10 min incubation at room temperature; substrate N-CBZ-Phe-Arg-AMC (1 mM, 20 μl). How it is done:
To a 170 μl of enzyme-buffer mixture (enzyme: r rat cathepsin L, diluted to give approximate 15 F units/min, buffer: 58.8 mM sodium citrate, 1.18 mM EDTA, 235 mM sodium chloride, 5 mM DTT, pH 5.0) a 10 μL of inhibitor (dissolved in DMSO) was added. After 10 min of incubation at room temperature, a 20 μl of 1 mM substrate (N-CBZ-Phe-Arg-AMC, dissolved in DMSO) was added to initiate reaction. Reading is followed up for 10 min at the fluoroscan reader (excitation at 380 nm emission at 460 nm).
(§1) A plot of percentage of inhibition vs inhibitor concentration is obtained, and IC50 is determined using a linear regression calculation (concentration of inhibitor which will give 50% inhibition).

A further assay has as its target cathepsin B (Rattus norvegicus, UniProt P00787). The assay can be described thus: In vitro assay for cathepsin B inhibition. Format: biochemical. The settings on record: r rat cathepsin B; pH 5.1; 10 min incubation at room temperature; substrate N-CBZ-Phe-Arg-AMC (5 mM, 20 μl). How it is done:
The compounds of formula I were tested for inhibition of cathepsin B using the known method (A. J. Barret et al., Biochem. J. 1982, 201, 189-198). To a 170 μl of enzyme-buffer mixture (enzyme: r rat cathepsin B, diluted to give approximate 10 F units/min, buffer: 56 mM sodium acetate, 1.124 mM EDTA, 10 mM DTT, pH 5.1) a 10 μL of inhibitor (dissolved in DMSO) was added. After 10 min of incubation at room temperature, a 20 μl of 5 mM substrate (N-CBZ-Phe-Arg-AMC, dissolved in DMSO) was added to initiate reaction. Reading is followed up for 10 min at the fluoroscan reader (excitation at 380 nm emission at 460 nm).
as §1

Chain of cathepsin B (P00787 80-333 limits assumed): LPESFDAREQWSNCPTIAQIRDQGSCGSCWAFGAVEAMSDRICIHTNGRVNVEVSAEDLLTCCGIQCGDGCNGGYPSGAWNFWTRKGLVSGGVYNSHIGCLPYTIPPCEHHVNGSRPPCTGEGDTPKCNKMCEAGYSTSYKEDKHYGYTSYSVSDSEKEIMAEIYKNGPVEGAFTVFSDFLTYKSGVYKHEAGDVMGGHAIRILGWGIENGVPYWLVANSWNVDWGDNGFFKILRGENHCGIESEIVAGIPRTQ
Chain of cathepsin L (P07154 114-334): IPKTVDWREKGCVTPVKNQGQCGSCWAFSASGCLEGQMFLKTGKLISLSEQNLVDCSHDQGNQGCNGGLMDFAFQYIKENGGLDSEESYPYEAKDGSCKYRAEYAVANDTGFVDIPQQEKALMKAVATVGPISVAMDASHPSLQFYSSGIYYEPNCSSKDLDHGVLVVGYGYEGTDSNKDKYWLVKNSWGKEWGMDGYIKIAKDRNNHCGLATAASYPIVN

Regarding `CC(=O)O[C@@H]1NC(=O)[C@H]1NC(=O)C(NC(=O)OCc1ccccc1)c1ccccc1` (mixture of isomers) [Example 3, (3S,4S)-3-(N-benzyloxycarbonyl-DL-phenylglycyl)-amino-4-acetoxy-azetidin-2-one], the IC50 is 43100 nM against cathepsin L and greater than 50000 nM at cathepsin B.
Consider `CC(C)(C)C[C@H](NC(=O)OCc1ccccc1)C(=O)N[C@@H]1C(=O)N[C@H]1Oc1ccccc1` [Example 27, (3S, 4S)-3-(2S-2-benzyloxycarbonylamino-2-t-butylmethyl-acetamido)-4-phenoxy-azetidin-2-one], for which the IC50 stood at 2300 nM on cathepsin L and 23000 nM at cathepsin B.
For `O=C(CCc1ccccc1)NC(Cc1ccc2ccccc2c1)C(=O)NC1C(=O)NC1Sc1ccccc1` [Example 15, (3S,4SR)-3-{N-(3-phenylpropionoyl)-β-(2-naphthyl)-L-alanyl}-amino-4-phenylthio-azetidin-2-one], in that order: 6.1 nM and 1910 nM.
For the molecule `O=C(CCc1ccccc1)NC(Cc1ccc2ccccc2c1)C(=O)NC1C(=O)NC1S(=O)(=O)c1ccccc1` [Example 16, (3S,4SR)-3-{N-(3-phenylpropionoyl)-β-(2-naphthyl)-L-alanyl}-amino-4-phenylsulfonyl-azetidin-2-one], the values for the IC50 at cathepsin L and at cathepsin B were 8.6 nM and 1600 nM, respectively.
Taken in the same sequence, the figures for `O=C(N[C@@H](Cc1ccc2ccccc2c1)C(=O)N[C@@H]1C(=O)N[C@H]1Oc1cccc(N2CCOCC2)c1)OCc1ccccc1` [Example 14A, (3S,4S)-3-{N-benzyloxycarbonyl-β-(2-naphthyl)-L-alanyl}amino-4-{3-(morpholin-4-yl)-phenoxy}-azetidin-2-one] were 2.7 nM and 1700 nM.
For `O=C(CCc1ccccc1)NC(Cc1ccc2ccccc2c1)C(=O)NC1C(=O)NC1SCCO` [Example 17, (3S,4SR)-3-{N-(3-phenylpropionoyl)-β-(2-naphthyl)-L-alanyl}-amino-4-(2-hydroxyethylthio)-azetidin-2-one], in that order: 400 nM and 10100 nM.
Taken in the same sequence, the figures for `CC(=O)O[C@@H]1NC(=O)[C@H]1NC(=O)C(Cc1cccs1)NC(=O)OCc1ccccc1` (mixture of isomers) [Example 7, (3S,4S)-3-(N-benzyloxycarbonyl-β-(2-thienyl)-DL-alanyl)-amino-4-acetoxy-azetidin-2-one] were 2320 nM and 28600 nM.
In the case of `CC(=O)O[C@@H]1NC(=O)[C@H]1NC(=O)[C@H](CCCNC(N)=O)NC(=O)CCc1ccccc1` [Example 23, (3S,4S)-3-{N-(3-phenylpropionyl)-L-citrullinyl}-amino-4-acetoxy-azetidin-2-one], the IC50 against cathepsin L was determined as 11500 nM; against cathepsin B it was 11000 nM.

The values are drawn from patent publication US5959123A, “3,4-Disubstituted azetidin-2-one derivatives useful as cysteine proteinase regulators” (Synphar Laboratories, Inc., priority 1997, dated 1999).
